According to PubChem BioAssay AID192 (DTP/NCI, 2004):
Where “and” joins values, the source holds several entries; their conditions need not be identical. Equal entries are not always repeated. Inconclusive results and toxic doses are left out. Rule for the calls: active = survival T/C of 150% or more; inactive = T/C below 125% in these data.

Test system: BDF1 mice, B16 melanoma ip, median survival T/C
Test: NCI In Vivo Anticancer Drug Screen. Data for tumor model B16 Melanoma (intraperitoneal) in B6D2F1 (BDF1) mice
Conditions: endpoint: median survival time, higher = longer survival
Method in brief: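 Each result divides a survival or tumor-size measurement in the compound-treated group by the same measurement in the vehicle group.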

[1] = dose: 12.5 mg/kg/injection, schedule: Q01DX009 (ip), vehicle: saline with Tween-80
[2] = dose: 25.0 mg/kg/injection, schedule: Q01DX009 (ip), vehicle: saline with Tween-80
[3] = dose: 25.0 mg/kg/injection, schedule: Q04DX003 (ip), vehicle: saline with Tween-80
[4] = dose: 50.0 mg/kg/injection, schedule: Q04DX003 (ip), vehicle: saline with Tween-80
[5] = dose: 100.0 mg/kg/injection, schedule: Q01DX009 (ip), vehicle: saline with Tween-80
[6] = dose: 25.0 mg/kg/injection, schedule: Q01DX009 (ip), vehicle: saline
[7] = dose: 50.0 mg/kg/injection, schedule: Q01DX009 (ip), vehicle: saline
[8] = dose: 50.0 mg/kg/injection, schedule: Q01DX009 (ip), vehicle: saline with Tween-80
[9] = dose: 100.0 mg/kg/injection, schedule: Q01DX009 (ip), vehicle: saline
[10] = dose: 100.0 mg/kg/injection, schedule: Q01DX009 (ip), vehicle: Klucel (hydroxypropylcellulose) (HPC)
[11] = dose: 200.0 mg/kg/injection, schedule: Q01DX009 (ip), vehicle: Klucel (hydroxypropylcellulose) (HPC)
[12] = dose: 400.0 mg/kg/injection, schedule: Q01DX009 (ip), vehicle: Klucel (hydroxypropylcellulose) (HPC)

Measured: T/C

CCCCN(CCCC)CCNc1ccc(Cl)c2oc3cc(C)ccc3c(=O)c12
inactive: [1] 100 % of control | [2] 93 % of control | [3] 105 % of control | [4] 92 % of control | dose: 100.0 mg/kg/injection, schedule: Q04DX003 (ip), vehicle: saline with Tween-80 86 % of control

CCCCCCCCCCCCSC1=CC(=O)C(OC)=C(OC)C1=O
inactive: dose: 6.25 mg/kg/injection, schedule: Q01DX030 (ip), vehicle: saline with Tween-80 99 % of control | dose: 12.5 mg/kg/injection, schedule: Q01DX030 (ip), vehicle: saline with Tween-80 95 % of control | dose: 25.0 mg/kg/injection, schedule: Q01DX030 (ip), vehicle: saline with Tween-80 91 % of control

CCN(C(=O)Nc1ccc(Cl)cc1)c1ccccc1C
inactive: [5] 97 % of control | dose: 200.0 mg/kg/injection, schedule: Q01DX009 (ip), vehicle: saline with Tween-80 102 % of control | dose: 400.0 mg/kg/injection, schedule: Q01DX009 (ip), vehicle: saline with Tween-80 97 % of control

CN(C)CCC=C1c2ccccc2C=Cc2ccccc21
inactive: dose: 0.39 mg/kg/injection, schedule: Q01DX009 (ip), vehicle: saline 96 % of control | dose: 0.78 mg/kg/injection, schedule: Q01DX009 (ip), vehicle: saline 102 % of control | dose: 1.56 mg/kg/injection, schedule: Q01DX009 (ip), vehicle: saline 98 % of control and 97 % of control | dose: 3.12 mg/kg/injection, schedule: Q01DX009 (ip), vehicle: saline 96 % of control and 100 % of control | dose: 6.25 mg/kg/injection, schedule: Q01DX009 (ip), vehicle: saline 86 % of control and 123 % of control and 93 % of control | dose: 12.5 mg/kg/injection, schedule: Q01DX009 (ip), vehicle: saline 111 % of control | [6] 118 % of control and 90 % of control | [7] 101 % of control

C=CC(=O)[O][Pb]([CH3])([CH3])[CH3]
inactive: dose: 0.75 mg/kg/injection, schedule: Q01DX009 (ip), vehicle: saline with Tween-80 94 % of control | dose: 1.5 mg/kg/injection, schedule: Q01DX009 (ip), vehicle: saline with Tween-80 95 % of control

O=[N+]([O-])c1ccccc1O
inactive: [1] 97 % of control | dose: 12.5 mg/kg/injection, schedule: Q04DX003 (ip), vehicle: saline with Tween-80 94 % of control | [2] 92 % of control | [3] 91 % of control | [8] 100 % of control | [4] 100 % of control

Cc1cccc(NC(=O)COc2ccc(Cl)cc2)c1C
inactive: [6] 98 % of control | [7] 100 % of control | [5] 98 % of control | [9] 105 % of control

Cc1cccc(NC(=O)c2ccc(Cl)cc2)c1C
inactive: [10] 93 % of control | [11] 89 % of control | [12] 89 % of control

CSc1ncnc2nc[nH]c12
inactive: dose: 50.0 mg/kg/injection, schedule: Q01DX009 (ip), vehicle: Klucel (hydroxypropylcellulose) (HPC) 104 % of control | [10] 100 % of control | [11] 102 % of control | [12] 88 % of control

CC1(C)N=C(N)N=C(N)N1c1ccc(OCCCCNC(=O)c2ccc(S(=O)(=O)F)cc2)c(Cl)c1
inactive: [1] 108 % of control | [2] 112 % of control | [8] 111 % of control | [5] 112 % of control

CCC(CC)N=C(N)N
inactive: [6] 101 % of control | [7] 98 % of control | [9] 112 % of control
